Test results from publication PMC10361003 (Journal of Enzyme Inhibition and Medicinal Chemistry, 2023).

Target: T1, aldose reductase (Homo sapiens, UniProt P15121)
Assay: In vitro enzyme inhibitory assay against human aldose reductase
Type: biochemical
Conditions: AR inhibition, Epalrestat as positive control

Structure (SMILES) | IC50
COc1cc(/C=C2\SC(=O)N(CC(=O)c3ccc([N+](=O)[O-])cc3)C2=O)cc(OC)c1OC [Compound 5g, (Z)-3-(2-(4-nitrophenyl)-2-oxoethyl)-5-(3,4,5-trimethoxybenzylidene)thiazolidine-2,4-dione] | 0.72 µM
O=C(CN1C(=O)S/C(=C\c2cccc(Br)c2)C1=O)c1ccc([N+](=O)[O-])cc1 [Compound 5k, (Z)-5-(3-bromobenzylidene)-3-(2-(4-nitrophenyl)-2-oxoethyl)thiazolidine-2,4-dione] | 0.41 µM
O=C(CN1C(=O)S/C(=C\c2cccc([N+](=O)[O-])c2)C1=O)c1ccc([N+](=O)[O-])cc1 [Compound 5h, (Z)-5-(3-nitrobenzylidene)-3-(2-(4-nitrophenyl)-2-oxoethyl)thiazolidine-2,4-dione] | 0.51 µM
COc1ccc(/C=C2\SC(=O)N(CC(=O)c3ccc([N+](=O)[O-])cc3)C2=O)cc1 [Compound 5f, (Z)-5-(4-methoxybenzylidene)-3-(2-(4-nitrophenyl)-2-oxoethyl)thiazolidine-2,4-dione] | 0.28 µM
O=C(CN1C(=O)S/C(=C\c2ccc(Cl)cc2)C1=O)c1ccc([N+](=O)[O-])cc1 [Compound 5b, (Z)-5-(4-chlorobenzylidene)-3-(2-(4-nitrophenyl)-2-oxoethyl)thiazolidine-2,4-dione] | 0.46 µM
O=C(CN1C(=O)S/C(=C\c2ccc([N+](=O)[O-])cc2)C1=O)c1ccc([N+](=O)[O-])cc1 [Compound 5a, (Z)-5-(4-nitrobenzylidene)-3-(2-(4-nitrophenyl)-2-oxoethyl)thiazolidine-2,4-dione] | 0.22 µM
O=C(CN1C(=O)S/C(=C\c2ccc(F)cc2)C1=O)c1ccc([N+](=O)[O-])cc1 [Compound 5d, (Z)-5-(4-fluorobenzylidene)-3-(2-(4-nitrophenyl)-2-oxoethyl)thiazolidine-2,4-dione] | 0.57 µM
Cc1ccc(/C=C2\SC(=O)N(CC(=O)c3ccc([N+](=O)[O-])cc3)C2=O)cc1 [Compound 5e, (Z)-5-(4-methylbenzylidene)-3-(2-(4-nitrophenyl)-2-oxoethyl)thiazolidine-2,4-dione] | 0.55 µM
O=C(CN1C(=O)S/C(=C\c2ccc(Br)cc2)C1=O)c1ccc([N+](=O)[O-])cc1 [Compound 5c, (Z)-5-(4-bromobenzylidene)-3-(2-(4-nitrophenyl)-2-oxoethyl)thiazolidine-2,4-dione] | 0.49 µM

Other lines, results leading:

IC50 | Structure (SMILES)
0.29 µM | Cc1ccc(/C=C2\SC(=O)N(Cc3nc4ccccc4s3)C2=O)cc1 [Compound 8e, (Z)-3-(benzo[d]thiazol-2-ylmethyl)-5-(4-methylbenzylidene)thiazolidine-2,4-dione]
0.94 µM | COc1ccc(/C=C2\SC(=O)N(Cc3nc4ccccc4s3)C2=O)cc1 [Compound 8f, (Z)-3-(benzo[d]thiazol-2-ylmethyl)-5-(4-methoxybenzylidene)thiazolidine-2,4-dione]
0.27 µM | COc1cc(/C=C2\SC(=O)N(Cc3nc4ccccc4s3)C2=O)cc(OC)c1OC [Compound 8g, (Z)-3-(benzo[d]thiazol-2-ylmethyl)-5-(3,4,5-trimethoxybenzylidene)thiazolidine-2,4-dione]
0.45 µM | COc1ccc(/C=C2\SC(=O)N(Cc3nc4ccccc4s3)C2=O)cc1OC [Compound 8h, (Z)-3-(benzo[d]thiazol-2-ylmethyl)-5-(3,4-dimethoxybenzylidene)thiazolidine-2,4-dione]
0.33 µM | O=C1S/C(=C\c2ccc(F)cc2)C(=O)N1Cc1nc2ccccc2s1 [Compound 8d, (Z)-3-(benzo[d]thiazol-2-ylmethyl)-5-(4-fluorobenzylidene)thiazolidine-2,4-dione]
0.16 µM | O=C1S/C(=C\c2ccc(Cl)cc2)C(=O)N1Cc1nc2ccccc2s1 [Compound 8b, (Z)-3-(benzo[d]thiazol-2-ylmethyl)-5-(4-chlorobenzylidene)thiazolidine-2,4-dione]
0.21 µM | O=C1S/C(=C\c2ccc(Br)cc2)C(=O)N1Cc1nc2ccccc2s1 [Compound 8c, (Z)-3-(benzo[d]thiazol-2-ylmethyl)-5-(4-bromobenzylidene)thiazolidine-2,4-dione]
1.98 µM | O=C1S/C(=C\c2ccc([N+](=O)[O-])cc2)C(=O)N1Cc1nc2ccccc2s1 [Compound 8a, (Z)-3-(benzo[d]thiazol-2-ylmethyl)-5-(4-nitrobenzylidene)thiazolidine-2,4-dione]

Target: T1, aldose reductase
Assay: not given
Conditions: at 0.5 IC50

effect on Km | effect on Vmax | Structure (SMILES)
slight reduction | significant reduction | O=C1S/C(=C\c2ccc(Cl)cc2)C(=O)N1Cc1nc2ccccc2s1 [Compound 8b, (Z)-3-(benzo[d]thiazol-2-ylmethyl)-5-(4-chlorobenzylidene)thiazolidine-2,4-dione]

Same assay, conditions: at concentrations equal to IC50 and double of IC50

effect on Km and Vmax | Structure (SMILES)
decreased significantly | O=C1S/C(=C\c2ccc(Cl)cc2)C(=O)N1Cc1nc2ccccc2s1 [Compound 8b, (Z)-3-(benzo[d]thiazol-2-ylmethyl)-5-(4-chlorobenzylidene)thiazolidine-2,4-dione]

Tested on: AR
Assay: not given
Conditions: read-out: IC50 (reported AR inhibition); Zopolrestat; cited from earlier work

Structure (SMILES) | IC50
O=C(O)Cc1nn(Cc2nc3cc(C(F)(F)F)ccc3s2)c(=O)c2ccccc12 [Zopolrestat, 3,4-dihydro-4-oxo-3-[[5-(trifluoromethyl)-2-benzothiazolyl]methyl]-1-phthalazineacetic acid] | 0.0031 µM
